# Where a SMILES comes first, the peptide text is derived from it. [ ]: non-standard residue; d: D form. The star is where a group is joined. Sta = CC(C)C[C@H](N)[C@@H](O)CC(=O)O; Isovaleryl = CC(C)CC(=O)*
# Target: T1, Pepsin (Bos taurus, UniProt P00792)
# T1 construct: from tissue; host or cells: bovine pancreas (so in the source)
# Experiment: Inhibition against pepsin (hemoglobin degradation, UV absorption at 280 nm)
# Format: biochemical, Bovine
# Details: substrate 2.0% hemoglobin in 0.06N-hydrochloric acid, 35° C., 10 minutes; read-out: IC50 (concentration of the compound required to achieve 50% inhibition)
# Procedure: (a) Inhibition against Pepsin from Bovine Pancreas
# To this mixture was added (150-a) μl of 0.06N-hydrochloric acid to adjust the pH value of the mixture to 3 to 5. Each of the solutions was then mixed with a substrate solution to start the reaction. The substrate for the reaction comprised 2.0% hemoglobin in 800 μl of 0.06N-hydrochloric acid and the reaction was conducted at 35° C. for 10 minutes, the total volume of the reaction mixture being 1 ml. 3 ml of 5% trichloroacetic acid was then added to the reaction mixture to terminate the reaction. After the precipitates formed had been filtered off, the amount of protein in the trichloroacetic acid fraction which contained the components of hemoglobin hydrolyzed with pepsin was measured from the value of ultraviolet absorption at 280 nm.
# T1 sequence (P00792 43-372): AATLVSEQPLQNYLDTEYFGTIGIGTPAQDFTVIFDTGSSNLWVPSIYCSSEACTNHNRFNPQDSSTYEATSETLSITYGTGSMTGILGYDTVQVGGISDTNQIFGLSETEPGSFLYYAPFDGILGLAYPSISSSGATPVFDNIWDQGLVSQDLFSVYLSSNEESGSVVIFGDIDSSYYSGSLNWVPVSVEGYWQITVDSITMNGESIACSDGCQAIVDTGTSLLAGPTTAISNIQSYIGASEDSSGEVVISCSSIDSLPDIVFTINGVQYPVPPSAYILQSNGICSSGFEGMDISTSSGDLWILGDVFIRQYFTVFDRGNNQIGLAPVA
smiles,measurement,value
CC(C)CC(=O)N[C@H](C(=O)N[C@H](C(=O)N[C@@H](CC(C)C)[C@@H](O)CC(=O)N[C@@H](C)C(=O)N[C@@H](CC(C)C)[C@@H](O)CC(=O)O)C(C)C)C(C)C [Pepstatin] (Isovaleryl-VV[Sta]A[Sta]-OH),IC50,18.3 nM
